≈ marks a conversion by molar mass, not a printed value.
Legend:
[1] = system: RPMI8226 (multiple myeloma); experiment: MTT multiple myeloma cell growth inhibition, 72 h; format: cell-based, human; details: Homo sapiens, RPMI-8226, RPMI8226, 72 h; for IC50: read-out: IC50; for IC90: read-out: IC90
Method: Multiple myeloma and lymphoma cell lines: RPMI8226 (multiple myeloma), purchased from Fuxiang Bio-tech Co. Ltd., Shanghai, China.
(§1) Obtaining 6000 well-growing leukemia cells and inoculating them into wells of a 96-well cell culture plate. The culture medium is the 1640 cell culture medium containing 10% fetal bovine serum. After adding the homoharringtonine derivatives of different concentrations and mixing uniformly, placing the plate in a carbon dioxide cell incubator (5% CO2) at 37° C. and incubating for 72 hours. Then the viable cell concentration is determined by the MTT method.

[2] = system: PANC-1 (pancreatic cancer); experiment: MTT solid tumor cell growth inhibition, 72 h; format: cell-based, human; details: Homo sapiens, PANC-1, 72 h; for IC50: read-out: IC50; for IC90: read-out: IC90
Method: (§2) Human solid tumor cell lines: Hep-2 ([…]), A549 (human lung cancer), CaES-17 (esophageal cancer cell), PC-3 (prostate cancer), CNE (nasopharyngeal carcinoma cell), and SK-OV-3 (ovarian cancer cell), all of which are purchased from China Center For Type Culture Collection; RKO (human colon adenocarcinoma cell), MGC 803 (human gastric cancer cell), MG63 (osteosarcoma) and U87 MG (malignant glioma cell), all of which are purchased from Fuxiang Bio-tech Co. Ltd., Shanghai, China; PANC-1 (pancreatic cancer), Huh7 (human liver cancer cell), Becap37 (human breast cancer cell), and Hela (human cervical cancer cell), all of which are donated by Cancer Research Institute of Zhejiang University, China.
(§3) Obtaining 4000 well-growing human solid tumor cells and inoculating them into wells of a 96-well cell culture plate. The culture medium is DMEM High Glucose cell culture medium containing 10% fetal bovine serum. The plate is placed in a carbon dioxide cell incubator (5% CO2) at 37° C. and incubating for 24 hours. After adding the homoharringtonine derivatives of different concentration and mixing uniformly, the plate is placed in a carbon dioxide cell incubator (5% CO2) at 37° C. and incubating for 72 hours. Then the viable cell concentration is determined by the MTT method and the cell viability (%) after drug treatment is calculated. In this experiment, the cell viability of control group (not treated with any compound) is set as 100%.

MG63 (osteosarcoma) = experiment: MTT solid tumor cell growth inhibition, 72 h; format: cell-based, human; details: Homo sapiens, MG 63, 72 h; for IC50: read-out: IC50; for IC90: read-out: IC90
Method: as §2, §3

[3] = system: Huh7 (human liver cancer cell); experiment: MTT solid tumor cell growth inhibition, 72 h; format: cell-based; details: Homo sapiens, Huh-7, Huh7, 72 h; for IC50: read-out: IC50; for IC90: read-out: IC90
Method: as §2, §3

[4] = system: RKO (human colon adenocarcinoma cell); experiment: MTT solid tumor cell growth inhibition, 72 h; format: cell-based; details: Homo sapiens
Method: as §2, §3

A549 (human lung cancer) = experiment: MTT solid tumor cell growth inhibition, 72 h; format: cell-based; details: Homo sapiens, A549, 72 h; for IC50: read-out: IC50; for IC90: read-out: IC90
Method: as §2, §3

[5] = system: Becap37 (human breast cancer cell); experiment: MTT solid tumor cell growth inhibition, 72 h; format: cell-based; details: Homo sapiens, Becap37, 72 h; for IC50: read-out: IC50; for IC90: read-out: IC90
Method: as §2, §3

[6] = system: Jurkat (acute lymphoblastic leukemia, ALL); experiment: MTT leukemia cell growth inhibition, 72 h; format: cell-based, human; details: Homo sapiens; for IC50: read-out: IC50; for IC90: read-out: IC90
Excerpt: (§4) Leukemia cell lines: K562/adr (drug-resistant, chronic myeloid leukemia, CML), NB4 (acute promyelocytic leukemia, AML), Kasumi-1 (acute myeloid leukemia M2 type, AML-M2), Jurkat (acute lymphoblastic leukemia, ALL), all of which are donated by Cancer Research Institute of Zhejiang University, China; and H9 (acute lymphoblastic leukemia, ALL), which is purchased from China Center for Type Culture Collection.
as §1, with “method. In this experiment, the cell viability in control group (not treated with any compound) is set as 100%.” for “method.”

[7] = system: Kasumi-1 (acute myeloid leukemia M2 type, AML-M2); experiment: MTT leukemia cell growth inhibition, 72 h; format: cell-based, human; details: Homo sapiens, Kasumi-1, 72 h; for IC50: read-out: IC50; for IC90: read-out: IC90
Excerpt: as §4
as §1, with “method. In this experiment, the cell viability in control group (not treated with any compound) is set as 100%.” for “method.”

[8] = system: H9 (acute lymphoblastic leukemia, ALL); experiment: MTT leukemia cell growth inhibition, 72 h; format: cell-based, human; details: Homo sapiens, H9, 72 h; for IC50: read-out: IC50; for IC90: read-out: IC90
Excerpt: as §4
as §1, with “method. In this experiment, the cell viability in control group (not treated with any compound) is set as 100%.” for “method.”

[9] = system: NB4 (acute promyelocytic leukemia, AML); experiment: MTT leukemia cell growth inhibition, 72 h; format: cell-based, human; details: Homo sapiens, NB4, 72 h; for IC50: read-out: IC50; for IC90: read-out: IC90
Excerpt: as §4
as §1, with “method. In this experiment, the cell viability in control group (not treated with any compound) is set as 100%.” for “method.”

[10] = system: K562/adr (drug-resistant, chronic myeloid leukemia, CML); experiment: MTT leukemia cell growth inhibition, 72 h; format: cell-based, human; details: Homo sapiens, K562/Adr; for IC50: read-out: IC50; for IC90: read-out: IC90
Excerpt: as §4
as §1, with “method. In this experiment, the cell viability in control group (not treated with any compound) is set as 100%.” for “method.”

[11] = system: MGC 803 (human gastric cancer cell); experiment: MTT solid tumor cell growth inhibition, 72 h; format: cell-based; details: Homo sapiens, MGC 803, 72 h; for IC50: read-out: IC50; for IC90: read-out: IC90
Method: as §2, §3

| SMILES | IC50 [1] | IC90 [1] | IC50 [2] | IC90 [2] | IC50 (MG63 (osteosarcoma)) | IC90 (MG63 (osteosarcoma)) | IC50 [3] | IC90 [3] | IC50 (A549 (human lung cancer)) | IC90 (A549 (human lung cancer)) | IC50 [5] | IC90 [5] | IC50 [6] | IC90 [6] | IC50 [7] | IC90 [7] | IC50 [8] | IC90 [8] | IC50 [9] | IC90 [9] | other results |
| --- | --- | --- | --- | --- | --- | --- | --- | --- | --- | --- | --- | --- | --- | --- | --- | --- | --- | --- | --- | --- | --- |
| COC1=C[C@]23CCCN2CCc2cc4c(cc2[C@@H]3[C@@H]1OC(=O)[C@@](O)(CCCC(C)(C)O)CC(=O)Nc1nccs1)OCO4 [BS-HH-008] | 11 µg/mL (≈ 17.9 µM) | > 16 µg/mL | > 16 µg/mL | > 16 µg/mL | 15.5 µg/mL (≈ 25.3 µM) | > 16 µg/mL | 11.2 µg/mL (≈ 18.3 µM) | > 16 µg/mL | 16 µg/mL (≈ 26.1 µM) | > 16 µg/mL | > 16 µg/mL | > 16 µg/mL | 4.69 µg/mL (≈ 7.64 µM) | 16 µg/mL (≈ 26.1 µM) | 5 µg/mL (≈ 8.15 µM) | > 16 µg/mL | 13.4 µg/mL (≈ 21.9 µM) | > 16 µg/mL | 5.62 µg/mL (≈ 9.16 µM) | 12.8 µg/mL (≈ 20.9 µM) | IC50 ([4]; read-out: IC50): 4.44 µg/mL (≈ 7.23 µM); IC90 ([4]; read-out: IC90): 16 µg/mL (≈ 26.1 µM); IC50 [10]: > 16 µg/mL; IC90 [10]: > 16 µg/mL |
| COCCCNC(=O)C[C@](O)(CCCC(C)(C)O)C(=O)O[C@@H]1C(OC)=C[C@]23CCCN2CCc2cc4c(cc2[C@H]13)OCO4 [BS-HH-028] | 4.92 µg/mL (≈ 8.16 µM) | > 16 µg/mL | 16 µg/mL (≈ 26.5 µM) | > 16 µg/mL | 6.8 µg/mL (≈ 11.3 µM) | > 16 µg/mL | 5.93 µg/mL (≈ 9.84 µM) | > 16 µg/mL | 16 µg/mL (≈ 26.5 µM) | > 16 µg/mL | 13.1 µg/mL (≈ 21.8 µM) | > 16 µg/mL | 3.56 µg/mL (≈ 5.91 µM) | 15 µg/mL (≈ 25 µM) | 2.75 µg/mL (≈ 4.56 µM) | 13 µg/mL (≈ 21.6 µM) | 6.52 µg/mL (≈ 10.8 µM) | > 16 µg/mL | 2.59 µg/mL (≈ 4.3 µM) | 7.52 µg/mL (≈ 12.5 µM) | IC50 [11]: 8.62 µg/mL (≈ 14.3 µM); IC90 [11]: 24.3 µg/mL (≈ 40.4 µM); IC50 [10]: > 16 µg/mL; IC90 [10]: > 16 µg/mL |
| COC1=C[C@]23CCCN2CCc2cc4c(cc2[C@@H]3[C@@H]1OC(=O)[C@@](O)(CCCC(C)(C)O)CC(=O)N1CCC(C#N)CC1)OCO4 [BS-HH-035] | 1.44 µg/mL (≈ 2.31 µM) | 14.1 µg/mL (≈ 22.7 µM) | 5.02 µg/mL (≈ 8.05 µM) | > 16 µg/mL | 1.98 µg/mL (≈ 3.17 µM) | > 16 µg/mL | 4.46 µg/mL (≈ 7.15 µM) | > 16 µg/mL | 5.41 µg/mL (≈ 8.67 µM) | > 16 µg/mL | 3.75 µg/mL (≈ 6.01 µM) | > 16 µg/mL | 0.87 µg/mL (≈ 1.39 µM) | > 16 µg/mL | 0.8 µg/mL (≈ 1.28 µM) | 2.96 µg/mL (≈ 4.75 µM) | 5.49 µg/mL (≈ 8.8 µM) | > 16 µg/mL | 0.72 µg/mL (≈ 1.15 µM) | 6.3 µg/mL (≈ 10.1 µM) | IC50 [11]: 1.79 µg/mL (≈ 2.87 µM); IC90 [11]: 9.2 µg/mL (≈ 14.7 µM); IC50 [10]: 14.1 µg/mL (≈ 22.6 µM); IC90 [10]: > 16 µg/mL |
| COC1=C[C@]23CCCN2CCc2cc4c(cc2[C@@H]3[C@@H]1OC(=O)[C@@](O)(CCCC(C)(C)O)CC(=O)N1CCCCC1C)OCO4 (stereo partly drawn) [BS-HH-037] | 1 µg/mL (≈ 1.63 µM) | 9.86 µg/mL (≈ 16.1 µM) | 6.47 µg/mL (≈ 10.6 µM) | > 16 µg/mL | 1.44 µg/mL (≈ 2.35 µM) | 16 µg/mL (≈ 26.1 µM) | 16 µg/mL (≈ 26.1 µM) | > 16 µg/mL | 1.96 µg/mL (≈ 3.2 µM) | > 16 µg/mL | 1.5 µg/mL (≈ 2.45 µM) | > 16 µg/mL | 0.41 µg/mL (≈ 0.669 µM) | > 16 µg/mL | 1.58 µg/mL (≈ 2.58 µM) | 16 µg/mL (≈ 26.1 µM) | 3.69 µg/mL (≈ 6.02 µM) | > 16 µg/mL | 0.7 µg/mL (≈ 1.14 µM) | 5.08 µg/mL (≈ 8.29 µM) | IC50 [11]: 0.9 µg/mL (≈ 1.47 µM); IC90 [11]: 9.29 µg/mL (≈ 15.2 µM); IC50 [10]: > 16 µg/mL; IC90 [10]: > 16 µg/mL |

Source: US9676789B2, “Aminated derivative of homoharringtonine, preparation method therefor, and application thereof” (HANGZHOU BENSHENG PHARMACEUTICAL CO., LTD., priority 2011, dated 2017)
